Test results taken from paper PMC8524670 (Pharmacology Research & Perspectives, 2021).

What was measured:
[1] = biological target: CYP3A (Homo sapiens, UniProt P08684); assay: CYP reversible inhibition in HLMs; details: for R1: DDI basic model, hepatic; for R1 , gut: intestinal CYP3A, basic model; for Ag / Ah: static model term; for Ag: gut inhibition; for Ah: liver inhibition
[2] = estimated from PBPK modeling; cited from earlier work
[3] = biological target: T1, OATP1B3 (Homo sapiens, UniProt Q9NPD5); assay: SLC transportation assay in HEK293 cells; format: in vitro ADME; details: uptake ratios <2 at 0.1, 0.3, 5 µM
T1 sequence (Q9NPD5 1-702): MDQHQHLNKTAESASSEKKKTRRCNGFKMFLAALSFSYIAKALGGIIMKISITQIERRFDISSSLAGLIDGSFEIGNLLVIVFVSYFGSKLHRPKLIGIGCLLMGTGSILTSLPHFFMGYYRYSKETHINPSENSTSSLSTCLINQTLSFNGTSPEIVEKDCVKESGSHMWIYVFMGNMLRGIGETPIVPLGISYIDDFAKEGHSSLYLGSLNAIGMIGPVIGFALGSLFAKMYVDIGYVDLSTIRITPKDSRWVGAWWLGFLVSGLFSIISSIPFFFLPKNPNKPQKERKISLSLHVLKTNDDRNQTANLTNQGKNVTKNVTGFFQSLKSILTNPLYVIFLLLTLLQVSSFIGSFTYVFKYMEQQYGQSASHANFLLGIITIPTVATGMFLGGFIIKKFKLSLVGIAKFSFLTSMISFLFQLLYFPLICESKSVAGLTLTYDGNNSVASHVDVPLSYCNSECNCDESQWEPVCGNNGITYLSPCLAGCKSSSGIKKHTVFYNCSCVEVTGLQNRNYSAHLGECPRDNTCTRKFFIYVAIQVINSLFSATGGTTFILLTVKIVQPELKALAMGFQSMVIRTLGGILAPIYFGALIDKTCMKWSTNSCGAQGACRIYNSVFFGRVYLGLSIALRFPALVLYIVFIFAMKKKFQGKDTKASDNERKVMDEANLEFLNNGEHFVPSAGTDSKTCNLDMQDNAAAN

[4] = test system: CYP3A; details: cited from earlier work
[5] = biological target: CYP2C19 (Homo sapiens, UniProt P33261); assay: CYP reversible inhibition in HLMs; details: S-mephenytoin
Chain of CYP2C19 (P33261 whole entry): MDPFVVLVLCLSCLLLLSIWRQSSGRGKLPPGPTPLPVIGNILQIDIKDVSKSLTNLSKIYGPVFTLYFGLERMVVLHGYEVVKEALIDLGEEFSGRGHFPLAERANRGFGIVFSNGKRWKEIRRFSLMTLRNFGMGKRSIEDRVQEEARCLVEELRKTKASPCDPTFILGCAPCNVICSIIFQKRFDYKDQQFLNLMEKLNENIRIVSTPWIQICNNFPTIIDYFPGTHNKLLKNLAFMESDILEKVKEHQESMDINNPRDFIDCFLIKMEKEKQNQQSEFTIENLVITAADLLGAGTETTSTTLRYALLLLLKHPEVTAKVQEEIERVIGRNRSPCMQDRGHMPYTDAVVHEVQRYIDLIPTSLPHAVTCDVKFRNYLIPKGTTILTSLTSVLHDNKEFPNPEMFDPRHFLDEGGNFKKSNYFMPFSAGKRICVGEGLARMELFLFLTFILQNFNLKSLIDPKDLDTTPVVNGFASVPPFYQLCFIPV

[6] = test system: CYP2C9; details: coadministration of zanubrutinib; cited from earlier work
[7] = biological target: T2, OAT3 (Homo sapiens, UniProt Q8TCC7); assay: SLC transportation assay in HEK293 cells; format: in vitro ADME; details: uptake ratios <2 at 0.1, 0.3, 5 µM
T2 sequence (Q8TCC7 1-542): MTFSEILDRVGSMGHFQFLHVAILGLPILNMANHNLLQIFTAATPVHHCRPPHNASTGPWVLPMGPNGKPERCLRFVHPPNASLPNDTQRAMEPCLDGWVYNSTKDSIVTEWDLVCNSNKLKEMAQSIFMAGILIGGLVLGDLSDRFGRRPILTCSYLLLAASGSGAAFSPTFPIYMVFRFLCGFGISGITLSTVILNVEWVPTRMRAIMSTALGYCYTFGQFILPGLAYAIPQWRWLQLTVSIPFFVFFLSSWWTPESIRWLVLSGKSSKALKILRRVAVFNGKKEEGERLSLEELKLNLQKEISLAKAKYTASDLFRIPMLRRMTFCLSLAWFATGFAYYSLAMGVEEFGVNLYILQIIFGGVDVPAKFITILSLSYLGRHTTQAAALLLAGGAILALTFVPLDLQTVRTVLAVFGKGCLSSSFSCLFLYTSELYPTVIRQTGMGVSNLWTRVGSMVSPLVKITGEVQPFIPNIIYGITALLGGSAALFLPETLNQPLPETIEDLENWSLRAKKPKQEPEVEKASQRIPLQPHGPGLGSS

[8] = test system: CYP3A; assay: Time-dependent CYP inhibition in HLMs; details: 10 µM zanubrutinib, 30 min pre-incubation with HLMs and NADPH
[9] = biological target: T1, OATP1B3; assay: SLC inhibition assay in HEK293 cells; format: in vitro ADME; details: 0.05–5 µM
[10] = biological target: P-gp (Homo sapiens, UniProt P08183); assay: P-gp transportation in MDCK-MDR1 cells; format: in vitro ADME
Chain of P-gp (P08183 whole entry): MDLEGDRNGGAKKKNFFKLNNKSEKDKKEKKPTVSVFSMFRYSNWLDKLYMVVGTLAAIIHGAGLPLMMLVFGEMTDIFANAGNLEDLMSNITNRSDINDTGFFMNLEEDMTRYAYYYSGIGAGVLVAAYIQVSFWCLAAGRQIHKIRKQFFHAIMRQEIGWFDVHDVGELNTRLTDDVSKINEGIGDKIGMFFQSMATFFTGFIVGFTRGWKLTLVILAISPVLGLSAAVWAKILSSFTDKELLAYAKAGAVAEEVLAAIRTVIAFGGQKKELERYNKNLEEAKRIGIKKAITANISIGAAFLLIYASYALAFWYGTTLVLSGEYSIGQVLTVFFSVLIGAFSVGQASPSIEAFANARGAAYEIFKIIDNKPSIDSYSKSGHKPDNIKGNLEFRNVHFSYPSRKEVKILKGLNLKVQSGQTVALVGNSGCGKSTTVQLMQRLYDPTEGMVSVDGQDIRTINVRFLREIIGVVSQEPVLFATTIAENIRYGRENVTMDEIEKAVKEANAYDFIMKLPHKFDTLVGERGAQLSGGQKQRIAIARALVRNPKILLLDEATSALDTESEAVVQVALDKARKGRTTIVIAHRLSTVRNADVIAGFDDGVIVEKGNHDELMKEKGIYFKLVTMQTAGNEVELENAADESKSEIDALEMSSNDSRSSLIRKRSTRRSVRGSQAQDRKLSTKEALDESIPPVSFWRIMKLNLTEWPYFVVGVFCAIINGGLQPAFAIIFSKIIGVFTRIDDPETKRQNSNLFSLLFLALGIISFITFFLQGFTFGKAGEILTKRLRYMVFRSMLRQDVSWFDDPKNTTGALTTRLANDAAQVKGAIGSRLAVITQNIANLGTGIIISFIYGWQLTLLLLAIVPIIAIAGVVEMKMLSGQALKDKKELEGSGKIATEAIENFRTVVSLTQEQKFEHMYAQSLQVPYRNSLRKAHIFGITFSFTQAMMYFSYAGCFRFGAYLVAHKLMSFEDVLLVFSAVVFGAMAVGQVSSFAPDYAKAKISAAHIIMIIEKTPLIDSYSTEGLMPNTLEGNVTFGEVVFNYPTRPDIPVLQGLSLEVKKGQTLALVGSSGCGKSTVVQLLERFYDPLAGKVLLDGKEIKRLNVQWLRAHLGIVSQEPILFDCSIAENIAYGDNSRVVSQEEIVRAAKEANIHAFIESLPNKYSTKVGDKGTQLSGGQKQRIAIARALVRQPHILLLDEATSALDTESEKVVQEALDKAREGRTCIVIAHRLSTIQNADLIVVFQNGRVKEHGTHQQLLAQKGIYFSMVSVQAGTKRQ

[11] = biological target: T3, OAT1 (Homo sapiens, UniProt Q4U2R8); assay: SLC inhibition assay in HEK293 cells
T3 sequence (Q4U2R8 1-563): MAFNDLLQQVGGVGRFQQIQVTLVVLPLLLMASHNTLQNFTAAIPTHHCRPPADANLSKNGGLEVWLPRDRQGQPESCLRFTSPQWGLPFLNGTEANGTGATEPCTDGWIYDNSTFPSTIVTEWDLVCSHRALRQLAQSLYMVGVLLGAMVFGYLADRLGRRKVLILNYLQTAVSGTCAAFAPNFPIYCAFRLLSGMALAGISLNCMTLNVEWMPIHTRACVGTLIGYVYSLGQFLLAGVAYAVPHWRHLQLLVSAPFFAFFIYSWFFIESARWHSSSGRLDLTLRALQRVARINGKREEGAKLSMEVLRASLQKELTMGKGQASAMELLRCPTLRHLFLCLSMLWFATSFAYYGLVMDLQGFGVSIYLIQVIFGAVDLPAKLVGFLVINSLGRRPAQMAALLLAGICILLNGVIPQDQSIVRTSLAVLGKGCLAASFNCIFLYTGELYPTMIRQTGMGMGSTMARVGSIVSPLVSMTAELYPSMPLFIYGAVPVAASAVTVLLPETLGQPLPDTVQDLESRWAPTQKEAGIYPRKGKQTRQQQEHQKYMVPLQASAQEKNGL

Chain of CYP3A (Homo sapiens, UniProt P08684) (P08684 2-503): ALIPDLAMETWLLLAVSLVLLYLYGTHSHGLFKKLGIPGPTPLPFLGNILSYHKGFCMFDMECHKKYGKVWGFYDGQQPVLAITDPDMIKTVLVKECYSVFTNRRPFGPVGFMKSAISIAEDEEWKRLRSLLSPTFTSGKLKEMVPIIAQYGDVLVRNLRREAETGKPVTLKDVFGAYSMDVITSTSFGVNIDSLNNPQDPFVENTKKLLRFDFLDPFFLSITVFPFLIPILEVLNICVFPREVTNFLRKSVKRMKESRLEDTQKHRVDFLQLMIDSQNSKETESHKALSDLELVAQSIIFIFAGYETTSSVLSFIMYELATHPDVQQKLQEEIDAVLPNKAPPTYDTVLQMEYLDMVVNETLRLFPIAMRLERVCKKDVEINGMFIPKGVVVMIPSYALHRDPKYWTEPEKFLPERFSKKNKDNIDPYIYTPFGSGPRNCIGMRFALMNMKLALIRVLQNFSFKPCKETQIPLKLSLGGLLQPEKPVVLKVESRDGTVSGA

SMILES: C=CC(=O)N1CCC([C@@H]2CCNc3c(C(N)=O)c(-c4ccc(Oc5ccccc5)cc4)nn32)CC1 [zanubrutinib]
- R1 ([1]; midazolam): 1.00
- R1 , gut ([1]; midazolam): 241
- Ag ([1]; midazolam): 0.45
- Ah ([1]; midazolam): 0.99
- R1 ([1]; testosterone): 1.00
- R1 , gut ([1]; testosterone): 58
- Ag ([1]; testosterone): 0.77
- Ah ([1]; testosterone): 1.00
- Fg (fraction available after intestinal metabolism) [2]: 0.44
- Substrate status [3]: unlikely to be a substrate
- Reduction in AUC0‐inf of zanubrutinib ([4]; co-administered with CYP3A inducer rifampin): 13.5 fold
- Increase in AUC0‐inf of zanubrutinib ([4]; co-administered with CYP3A inhibitor itraconazole): 3.8 fold
- R1 ([5]; DDI basic model, hepatic): 1.03
- Ah ([5]; static model term, liver inhibition): 0.97
- Effect on the clinical PK of warfarin [6]: no remarkable effect
- Substrate status [7]: unlikely to be a substrate
- Percent loss of enzymatic activity [8]: 19.2%
- Inhibition of uptake activity [9]: not inhibited
- Papp A→B at 90 min, 1 µM ([10]; dog, MDCK-MDR1): 9.16 ± 0.1 ×10⁻⁶ cm/s
- Papp A→B at 90 min, 10 µM ([10]; dog, MDCK-MDR1): 21.9 ± 0.049 ×10⁻⁶ cm/s
- Papp B→A at 90 min, 1 µM ([10]; dog, MDCK-MDR1): 31.7 ± 0.12 ×10⁻⁶ cm/s
- Papp B→A at 90 min, 10 µM ([10]; dog, MDCK-MDR1): 47.9 ± 0.094 ×10⁻⁶ cm/s
- P-gp substrate status ([10]; efflux ratio >2 indicates substrate): potential P‐gp substrate
- Inhibition of uptake activity ([11]; 0.05–5 µM): not inhibited
- activity at 0.05 µM ([11]; human): 103 ± 5.6%
- activity at 0.2 µM ([11]; human): 106 ± 7.8%
- activity at 1 µM ([11]; human): 109 ± 3.9%
- activity at 5 µM ([11]; human): 109 ± 3.3%
